According to US9346786B2, “Pyrrolidine compounds” (Hoffmann-La Roche Inc., priority 2009, dated 2016):
Like-named read-outs stand apart in the source and are kept apart here.

Biological target: recombinant human NK3 receptor (Homo sapiens (Human), UniProt P29371)
Assay: biochemical
Assay type: binding
Conditions: read-out: Data Ki (hNK-3 receptor affinity)
[1] = [3H]SR142801, membranes of HEK293 cells transiently expressing recombinant human NK3 receptor

Chain of recombinant human NK3 receptor (P29371 whole entry): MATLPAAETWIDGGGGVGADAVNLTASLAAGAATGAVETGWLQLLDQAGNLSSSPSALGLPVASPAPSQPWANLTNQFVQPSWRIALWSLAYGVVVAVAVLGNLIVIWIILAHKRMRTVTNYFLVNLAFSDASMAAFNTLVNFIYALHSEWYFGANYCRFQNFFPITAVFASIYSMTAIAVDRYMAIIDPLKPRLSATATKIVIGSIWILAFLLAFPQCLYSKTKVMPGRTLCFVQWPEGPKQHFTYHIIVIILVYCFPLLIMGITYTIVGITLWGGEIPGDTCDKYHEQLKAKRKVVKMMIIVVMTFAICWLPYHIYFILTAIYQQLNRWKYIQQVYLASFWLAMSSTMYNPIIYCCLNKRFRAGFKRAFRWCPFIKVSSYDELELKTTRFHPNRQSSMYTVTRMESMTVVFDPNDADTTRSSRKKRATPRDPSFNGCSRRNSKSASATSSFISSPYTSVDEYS

Row | SMILES | Ki [1] [nM] | Ki [nM]
1 | CCN(C(=O)Oc1ccc(F)cc1)[C@@H]1CN(C(=O)C2CCN(c3ccc(S(C)(=O)=O)cn3)CC2)C[C@H]1c1ccc(F)c(F)c1 [Example 64, [(3S,4R)-4-(3,4-Difluoro-phenyl)-1-(5′-methanesulfonyl-3,4,5,6-tetrahydro-2H-[1,2′]bipyridinyl-4-carbonyl)-pyrrolidin-3-yl]-ethyl-carbamic acid 4-fluoro-phenyl ester] | 5 | –
2 | CCN(C(=O)Oc1ccc(F)cc1)[C@@H]1CN(C(=O)C2CCN(C(=O)C3(C)COC3)CC2)C[C@H]1c1ccc(Cl)c(F)c1 [Example 65, {(3S,4R)-4-(4-Chloro-3-fluoro-phenyl)-1-[1-(3-methyl-oxetane-3-carbonyl)-piperidine-4-carbonyl]-pyrrolidin-3-yl}-ethyl-carbamic acid 4-fluoro-phenyl ester] | 3 | –
3 | CCN(C(=O)Oc1ccc(F)cc1)[C@@H]1CN(C(=O)C2CCN(C(=O)C3CC(F)(F)C3)CC2)C[C@H]1c1ccc(Cl)c(F)c1 [Example 66, {(3S,4R)-4-(4-Chloro-3-fluoro-phenyl)-1-[1-(3,3-difluoro-cyclobutanecarbonyl)-piperidine-4-carbonyl]-pyrrolidin-3-yl}-ethyl-carbamic acid 4-fluoro-phenyl ester] | 1 | –
4 | CCN(C(=O)Oc1ccc(F)cc1)[C@@H]1CN(C(=O)C2CCN(C(=O)C3CCC3)CC2)C[C@H]1c1ccc(Cl)c(F)c1 [Example 67, [(3S,4R)-4-(4-Chloro-3-fluoro-phenyl)-1-(1-cyclobutanecarbonyl-piperidine-4-carbonyl)-pyrrolidin-3-yl]-ethyl-carbamic acid 4-fluoro-phenyl ester] | 2 | –
5 | CCN(C(=O)Oc1ccc(F)cc1)[C@@H]1CN(C(=O)C2CCN(C(=O)C3(C(F)(F)F)CCC3)CC2)C[C@H]1c1ccc(Cl)c(F)c1 [Example 68, {(3S,4R)-4-(4-Chloro-3-fluoro-phenyl)-1-[1-(1-trifluoromethyl-cyclobutanecarbonyl)-piperidine-4-carbonyl]-pyrrolidin-3-yl}-ethyl-carbamic acid 4-fluoro-phenyl ester] | 2 | –
6 | CCN(C(=O)Oc1ccc(F)cc1)[C@@H]1CN(C(=O)C2CCN(C(=O)C3CC(F)C3)CC2)C[C@H]1c1ccc(Cl)c(F)c1 (stereo partly drawn) [Example 69, {(3S,4R)-4-(4-Chloro-3-fluoro-phenyl)-1-[1-(3-fluoro-cyclobutanecarbonyl)-piperidine-4-carbonyl]-pyrrolidin-3-yl}-ethyl-carbamic acid 4-fluoro-phenyl ester] | 2 | –
7 | CCN(C(=O)Oc1ccc(F)cc1)[C@@H]1CN(C(=O)C2CCN(C(=O)C3CC3(F)F)CC2)C[C@H]1c1ccc(Cl)c(F)c1 (stereo partly drawn) [Example 70, {(3S,4R)-4-(4-Chloro-3-fluoro-phenyl)-1-[1-(2,2-difluoro-cyclopropanecarbonyl)-piperidine-4-carbonyl]-pyrrolidin-3-yl}-ethyl-carbamic acid 4-fluoro-phenyl ester] | 4 | –
8 | CCN(C(=O)Oc1ccc(F)cc1)[C@@H]1CN(C(=O)C2CCN(C(=O)C3(C(F)(F)F)CC3)CC2)C[C@H]1c1ccc(Cl)c(F)c1 [Example 71, {(3S,4R)-4-(4-Chloro-3-fluoro-phenyl)-1-[1-(1-trifluoromethyl-cyclopropanecarbonyl)-piperidine-4-carbonyl]-pyrrolidin-3-yl}-ethyl-carbamic acid 4-fluoro-phenyl ester] | – | 4
9 | CCN(C(=O)Oc1ccc(F)cc1)[C@@H]1CN(C(=O)C2CCN(C(=O)C3(C#N)CC3)CC2)C[C@H]1c1ccc(Cl)c(F)c1 [Example 72, {(3S,4R)-4-(4-Chloro-3-fluoro-phenyl)-1-[1-(1-cyano-cyclopropanecarbonyl)-piperidine-4-carbonyl]-pyrrolidin-3-yl}-ethyl-carbamic acid 4-fluoro-phenyl ester] | – | 2
10 | CCN(C(=O)Oc1ccc(F)cc1)[C@@H]1CN(C(=O)C2CCN(C(=O)C3CCOC(C)(C)C3)CC2)C[C@H]1c1ccc(Cl)c(F)c1 (stereo partly drawn) [Example 73, {(3S,4R)-4-(4-Chloro-3-fluoro-phenyl)-1-[1-(2,2-dimethyl-tetrahydro-pyran-4-carbonyl)-piperidine-4-carbonyl]-pyrrolidin-3-yl}-ethyl-carbamic acid 4-fluoro-phenyl ester] | – | 3
11 | CCN(C(=O)Oc1ccc(F)cc1)[C@@H]1CN(C(=O)C2CCN(C(=O)c3ccc(C(F)(F)F)cn3)CC2)C[C@H]1c1ccc(Cl)c(F)c1 [Example 74, {(3S,4R)-4-(4-Chloro-3-fluoro-phenyl)-1-[1-(5-trifluoromethyl-pyridine-2-carbonyl)-piperidine-4-carbonyl]-pyrrolidin-3-yl}-ethyl-carbamic acid 4-fluoro-phenyl ester] | 12 | –
12 | CCN(C(=O)Oc1ccc(F)cc1)[C@@H]1CN(C(=O)C2CCN(C(=O)c3ccc(F)cn3)CC2)C[C@H]1c1ccc(Cl)c(F)c1 [Example 75, {(3S,4R)-4-(4-Chloro-3-fluoro-phenyl)-1-[1-(5-fluoro-pyridine-2-carbonyl)-piperidine-4-carbonyl]-pyrrolidin-3-yl}-ethyl-carbamic acid 4-fluoro-phenyl ester] | 3 | –
13 | CCN(C(=O)Oc1ccc(F)cc1)[C@@H]1CN(C(=O)C2CCN(C(=O)c3ccc(C#N)cc3)CC2)C[C@H]1c1ccc(Cl)c(F)c1 [Example 76, {(3S,4R)-4-(4-Chloro-3-fluoro-phenyl)-1-[1-(4-cyano-benzoyl)-piperidine-4-carbonyl]-pyrrolidin-3-yl}-ethyl-carbamic acid 4-fluoro-phenyl ester] | 17 | –
14 | CCN(C(=O)Oc1ccc(F)cc1)[C@@H]1CN(C(=O)C2CCN(C(=O)c3ccc(F)cc3)CC2)C[C@H]1c1ccc(Cl)c(F)c1 [Example 77, {(3S,4R)-4-(4-Chloro-3-fluoro-phenyl)-1-[1-(4-fluoro-benzoyl)-piperidine-4-carbonyl]-pyrrolidin-3-yl}-ethyl-carbamic acid 4-fluoro-phenyl ester] | – | 4
15 | CCN(C(=O)Oc1ccc(F)cc1)[C@@H]1CN(C(=O)C2CCN(C(=O)c3cnc(C(F)(F)F)cn3)CC2)C[C@H]1c1ccc(Cl)c(F)c1 [Example 78, {(3S,4R)-4-(4-Chloro-3-fluoro-phenyl)-1-[1-(5-trifluoromethyl-pyrazine-2-carbonyl)-piperidine-4-carbonyl]-pyrrolidin-3-yl}-ethyl-carbamic acid 4-fluoro-phenyl ester] | 5 | –
16 | CCN(C(=O)Oc1ccc(F)cc1)[C@@H]1CN(C(=O)C2CCN(C(=O)c3ccc(C#N)nc3)CC2)C[C@H]1c1ccc(Cl)c(F)c1 [Example 79, {(3S,4R)-4-(4-Chloro-3-fluoro-phenyl)-1-[1-(6-cyano-pyridine-3-carbonyl)-piperidine-4-carbonyl]-pyrrolidin-3-yl}-ethyl-carbamic acid 4-fluoro-phenyl ester] | 8 | –
17 | CCN(C(=O)Oc1ccc(F)cc1)[C@@H]1CN(C(=O)C2CCN(C(C)=O)CC2)C[C@H]1c1ccc(Cl)c(F)c1 [Example 80, [(3S,4R)-1-(1-Acetyl-piperidine-4-carbonyl)-4-(4-chloro-3-fluoro-phenyl)-pyrrolidin-3-yl]-ethyl-carbamic acid 4-fluoro-phenyl ester] | 2 | –
18 | CCN(C(=O)Oc1ccc(F)cc1)[C@@H]1CN(C(=O)C2CCN(S(C)(=O)=O)CC2)C[C@H]1c1ccc(Cl)c(F)c1 [Example 81, [(3S,4R)-4-(4-Chloro-3-fluoro-phenyl)-1-(1-methanesulfonyl-piperidine-4-carbonyl)-pyrrolidin-3-yl]-ethyl-carbamic acid 4-fluoro-phenyl ester] | 29 | –
19 | CCN(C(=O)Oc1ccc(F)cc1)[C@@H]1CN(C(=O)C2CCN(C(C)=O)CC2)C[C@H]1c1ccc(Cl)cc1 [Example 82, [(3S,4R)-1-(1-Acetyl-piperidine-4-carbonyl)-4-(4-chloro-phenyl)-pyrrolidin-3-yl]-ethyl-carbamic acid 4-fluoro-phenyl ester] | 8.2 | –
20 | CCN(C(=O)Oc1ccc(F)cc1)[C@@H]1CN(C(=O)C2CCN(c3ccc(C(C)(C)O)cn3)CC2)C[C@H]1c1ccc(Cl)c(F)c1 [Example 83, {(3S,4R)-4-(4-Chloro-3-fluoro-phenyl)-1-[5′-(1-hydroxy-1-methyl-ethyl)-3,4,5,6-tetrahydro-2H-[1,2′]bipyridinyl-4-carbonyl]-pyrrolidin-3-yl}-ethyl-carbamic acid 4-fluoro-phenyl ester] | 3.8 | –
21 | CCN(C(=O)Oc1ccccc1F)[C@@H]1CN(C(=O)C2CCN(C(=O)C3(C)COC3)CC2)C[C@H]1c1ccc(Cl)cc1 [Example 84, {(3S,4R)-4-(4-Chloro-phenyl)-1-[1-(3-methyl-oxetane-3-carbonyl)-piperidine-4-carbonyl]-pyrrolidin-3-yl}-ethyl-carbamic acid 2-fluoro-phenyl ester] | 29.8 | –
22 | CCN(C(=O)Oc1ccccc1F)[C@@H]1CN(C(=O)C2CCN(C(=O)C3(C#N)CC3)CC2)C[C@H]1c1ccc(Cl)cc1 [Example 85, {(3S,4R)-4-(4-Chloro-phenyl)-1-[1-(1-cyano-cyclopropanecarbonyl)-piperidine-4-carbonyl]-pyrrolidin-3-yl}-ethyl-carbamic acid 2-fluoro-phenyl ester] | 23.3 | –
23 | CCN(C(=O)Oc1ccccc1F)[C@@H]1CN(C(=O)C2CCN(C(=O)c3ccc(C(F)(F)F)cn3)CC2)C[C@H]1c1ccc(Cl)cc1 [Example 86, {(3S,4R)-4-(4-Chloro-phenyl)-1-[1-(5-trifluoromethyl-pyridine-2-carbonyl)-piperidine-4-carbonyl]-pyrrolidin-3-yl}-ethyl-carbamic acid 2-fluoro-phenyl ester] | – | 70.7
24 | CCN(C(=O)Oc1ccc(F)cc1)[C@@H]1CN(C(=O)C2CCN(C(=O)C3CCC3)CC2)C[C@H]1c1ccc(Cl)cc1 [Example 87, [(3S,4R)-4-(4-Chloro-phenyl)-1-(1-cyclobutanecarbonyl-piperidine-4-carbonyl)-pyrrolidin-3-yl]-ethyl-carbamic acid 4-fluoro-phenyl ester] | 2.1 | –
25 | CCN(C(=O)Oc1ccc(F)cc1)[C@@H]1CN(C(=O)C2CCN(C(=O)C3(C)COC3)CC2)C[C@H]1c1ccc(Cl)cc1 [Example 88, {(3S,4R)-4-(4-Chloro-phenyl)-1-[1-(3-methyl-oxetane-3-carbonyl)-piperidine-4-carbonyl]-pyrrolidin-3-yl}-ethyl-carbamic acid 4-fluoro-phenyl ester] | 5.6 | –
